This test deals with T1, Syk (Homo sapiens, UniProt P43405).
T1 construct: purchased Carna Biosciences
The test can be described thus: Syk HTRF assay. It counts as biochemical. The method in brief:
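HTRF kinase assay in HEPES pH 7.6 buffer with MgCl2, DTT and Triton X100; start mix of 87.5 μM ATP and 80 nM biotinylated peptide, 1 h at room temperature. EDTA stop, then Eu-anti-phosphotyrosine/streptavidin-DyLight 647 detection, read as 665/615 nm emission ratio.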

Setting [1] is: read-out: Activity Level (Syk HTRF assay IC50).
[2] abbreviates: IC50 activity level, read-out: Activity Level.
[3] abbreviates: activity levels A-D, read-out: Activity Level (IC50 in the Syk HTRF assay).

The values below come from patent publication US8299056B2 (Signal Pharmaceuticals, LLC, priority 2008, dated 2012).

Read-outs that look alike come from different tables or passages of the source.

For the compound `Cc1nc2cc(Nc3nc4cccc(-c5ccccc5)n4n3)ccc2[nH]1` [compound 46, N-(2-methyl-1H-benzo[d]imidazol-5-yl)-5-phenyl-[1,2,4]triazolo[1,5-a]pyridin-2-amine], the IC50 under setting [1] is 0.005 to 250 nM.

For `O[C@H]1CC[C@@H](Nc2cccc3nc(Nc4ccc(C(F)(F)F)cc4)nn23)C1` (stereo in doubt) [Example 418, (1S,3R)-3-(2-(4-(trifluoromethyl)phenylamino)-[1,2,4]triazolo[1,5-a]pyridin-5-ylamino)cyclopentanol], the IC50 under setting [2] lay within 0.005 to 250 nM.

For the compound `O[C@H]1CC[C@@H](Nc2cccc3nc(Nc4ccc5cn[nH]c5c4)nn23)CC1` [Example 365, cis-4-(2-(1H-indazol-6-ylamino)-[1,2,4]triazolo[1,5-a]pyridin-5-ylamino)cyclohexanol], the IC50 under setting [3] was in the range of 0.005 to 250 nM.

With `Cc1n[nH]c2cc(Nc3nc4cccc(CN5CCNC(=O)C5)n4n3)ccc12` [Example 235, 4-((2-(3-methyl-1H-indazol-6-ylamino)-[1,2,4]triazolo[1,5-a]pyridin-5-yl)methyl)piperazin-2-one], under setting [3], the IC50 lay within 0.005 to 250 nM.

As for `Cc1cc(Nc2nc3cccc(N[C@H]4CC[C@@H](O)CC4)n3n2)cc2c1CC(=O)N2C` [Example 556], under setting [2], the IC50 lay within 0.005 to 250 nM.

Turning to `c1cc(NC2CCCNC2)n2nc(Nc3ccc(N4CCOCC4)nc3)nc2c1` (stereo in doubt) [Example 411, (S)-N^2-(6-morpholinopyridin-3-yl)-N^5-(piperidin-3-yl)-[1,2,4]triazolo[1,5-a]pyridine-2,5-diamine], the IC50 under setting [2] is 0.005 to 250 nM.

On to `OC[C@@H]1CCN(c2cccc3nc(Nc4ccc(C(F)(F)F)cc4)nn23)C1` [Example 326, (R)-(1-(2-(4-(trifluoromethyl)phenylamino)-[1,2,4]triazolo[1,5-a]pyridin-5-yl)pyrrolidin-3-yl)methanol], for which the IC50 under setting [3] lay in the range of 250 to 500 nM.

Regarding `CNC(=O)c1ccc(Nc2nc3cccc(N[C@H]4CC[C@@H](N)CC4)n3n2)cc1` [Example 360, 4-(5-(cis-4-aminocyclohexylamino)-[1,2,4]triazolo[1,5-a]pyridin-2-ylamino)-N-methylbenzamide], under setting [3], the IC50 was in the range of 500 to 1000 nM.

Turning to `Fc1cccc(-c2cccc3nc(Nc4ccccc4)nn23)c1` [compound 81, 5-(3-fluorophenyl)-N-phenyl-[1,2,4]triazolo[1,5-a]pyridin-2-amine], under setting [1], the IC50 is 500 to 1000 nM.

Turning to `Cc1n[nH]c2cc(Nc3nc4cccc(N5CC(O)C5)n4n3)ccc12` [Example 215, 1-(2-(3-methyl-1H-indazol-6-ylamino)-[1,2,4]triazolo[1,5-a]pyridin-5-yl)azetidin-3-ol], under setting [3], the IC50 lay in the range of 0.005 to 250 nM.

For `COCCn1nc(C)c2ccc(Nc3nc4cccc(N[C@H]5CC[C@@H](O)CC5)n4n3)cc21` [Example 194, cis-4-(2-(1-(2-methoxyethyl)-3-methyl-1H-indazol-6-ylamino)-[1,2,4]triazolo[1,5-a]pyridin-5-ylamino)cyclohexanol], the IC50 under setting [1] lay within 250 to 500 nM.

On to `NCCNc1cc(Nc2nc3cccc(-c4ccccc4)n3n2)ccn1` [compound 39], for which the IC50 under setting [1] was in the range of 250 to 500 nM.

Turning to `CN1C(=O)Cc2ccc(Nc3nc4cccc(CC5CCOCC5)n4n3)cc21` [compound 118, 1-methyl-6-(5-((tetrahydro-2H-pyran-4-yl)methyl)-[1,2,4]triazolo[1,5-a]pyridin-2-ylamino)indolin-2-one], the IC50 under setting [1] lay within 1000 to 10000 nM.

Take `COc1cncc(Nc2nc3cccc(N[C@H]4CC[C@@H](O)CC4)n3n2)c1` [Example 368, cis-4-(2-(5-methoxypyridin-3-ylamino)-[1,2,4]triazolo[1,5-a]pyridin-5-ylamino)cyclohexanol]: the IC50 under setting [3] is 500 to 1000 nM.

`O[C@H]1CC[C@@H](Nc2cccc3nc(Nc4cnc5cn[nH]c5c4)nn23)CC1` [compound 107]: under setting [1], the IC50 fell in the range of 0.005 to 250 nM.

As for `NCCn1cnc2cc(-c3cccc4nc(Nc5ccccc5)nn34)ccc21` [Example 490, 5-(1-(2-aminoethyl)-1H-benzo[d]imidazol-5-yl)-N-phenyl-[1,2,4]triazolo[1,5-a]pyridin-2-amine], the IC50 under setting [2] lay in the range of 1000 to 10000 nM.

Turning to `Cc1n[nH]c2cc(Nc3nc4cccc(Cc5cc[nH]c(=O)c5)n4n3)ccc12` [Example 183, 4-((2-(3-methyl-1H-indazol-6-ylamino)-[1,2,4]triazolo[1,5-a]pyridin-5-yl)methyl)pyridin-2(1H)-one], under setting [1], the IC50 is 0.005 to 250 nM.

Regarding `NC(=O)[C@H]1CC[C@H](Oc2cccc3nc(Nc4ccc(C(F)(F)F)cc4)nn23)CC1` (stereo in doubt) [Example 405, trans-4-(2-(4-(trifluoromethyl)phenylamino)-[1,2,4]triazolo[1,5-a]pyridin-5-yloxy)cyclohexanecarboxamide], the IC50 under setting [2] was 1000 to 10000 nM.

In the case of `NC(=O)c1ccc(Nc2nc3cccc(N[C@H]4CC[C@@H](N)CC4)n3n2)cc1` [Example 493, cis-4-(5-(4-aminocyclohexylamino)-[1,2,4]triazolo[1,5-a]pyridin-2-ylamino)benzamide], the IC50 under setting [2] is 0.005 to 250 nM.

For `Cc1n[nH]c2cc(Nc3nc4cccc(NC[C@H]5CCC(O)C5)n4n3)ccc12` (stereo in doubt) [Example 180, (1R,3S)-3-((2-(3-methyl-1H-indazol-6-ylamino)-[1,2,4]triazolo[1,5-a]pyridin-5-ylamino)methyl)cyclopentanol], the IC50 under setting [1] was 0.005 to 250 nM.

For the compound `O[C@@H]1CC[C@H](Nc2cccc3nc(Nc4ccc(C(F)(F)F)cc4)nn23)C1` [Example 421, (1R,3S)-3-(2-(4-(trifluoromethyl)phenylamino)-[1,2,4]triazolo[1,5-a]pyridin-5-ylamino)cyclopentanol], the IC50 under setting [2] lay in the range of 250 to 500 nM.

In the case of `Cc1nnc2cc(Nc3nc4cccc(NC5CCOCC5)n4n3)ccn12` [Example 534, N^2-(3-methyl-[1,2,4]triazolo[4,3-a]pyridin-7-yl)-N^5-(tetrahydro-2H-pyran-4-yl)-[1,2,4]triazolo[1,5-a]pyridine-2,5-diamine], the IC50 under setting [2] was in the range of 1000 to 10000 nM.

In the case of `c1ccc(Nc2nc3cccc(N[C@H]4CCNC4)n3n2)cc1` [Example 475, (S)-N^2-phenyl-N^5-(pyrrolidin-3-yl)-[1,2,4]triazolo[1,5-a]pyridin-2,5-diamine], the IC50 under setting [2] was 250 to 500 nM.

Regarding `CN(CCO)c1cccc2nc(Nc3ccc4c(c3)NC(=O)C4(C)C)nn12` [Example 153, 6-(5-((2-hydroxyethyl)(methyl)amino)-[1,2,4]triazolo[1,5-a]pyridin-2-ylamino)-3,3-dimethylindolin-2-one], the IC50 under setting [1] lay within 0.005 to 250 nM.

With `c1ccc(-c2cccc3nc(Nc4ccc5ncccc5c4)nn23)cc1` [compound 59, N-(5-phenyl-[1,2,4]triazolo[1,5-a]pyridin-2-yl)quinolin-6-amine], the IC50 under setting [1] fell in the range of 0.005 to 250 nM.

As to `Cn1ncc2cc(Nc3nc4cccc(NC5CCOCC5)n4n3)ccc21` [Example 551, N^2-(1-methyl-1H-indazol-5-yl)-N^5-(tetrahydro-2H-pyran-4-yl)-[1,2,4]triazolo[1,5-a]pyridine-2,5-diamine], under setting [2], the IC50 was in the range of 0.005 to 250 nM.

Regarding `Cc1noc2cc(Nc3nc4cccc(NC5CCOCC5)n4n3)ccc12` [Example 531, N^2-(3-methylbenzo[d]isoxazol-6-yl)-N^5-(tetrahydro-2H-pyran-4-yl)-[1,2,4]triazolo[1,5-a]pyridine-2,5-diamine], the IC50 under setting [2] was 1000 to 10000 nM.

Take `Cn1c(=O)[nH]c2cc(Nc3nc4cccc(NC5CCOCC5)n4n3)ccc21` [Example 569, 1-methyl-5-(5-(tetrahydro-2H-pyran-4-ylamino)-[1,2,4-]triazolo[1,5-a]pyridin-2-ylamino)-1H-benzo[d]imidazol-2(3H)-one]: the IC50 under setting [2] was 0.005 to 250 nM.

Turning to `N[C@H]1CC[C@H](Oc2cccc3nc(Nc4ccc(C(F)(F)F)cc4)nn23)CC1` (stereo in doubt) [Example 422, trans-5-(4-aminocyclohexyloxy)-N-(4-(trifluoromethyl)phenyl)-[1,2,4]triazolo[1,5-a]pyridin-2-amine], under setting [2], the IC50 was in the range of 0.005 to 250 nM.

In the case of `COc1cc(Nc2nc3cccc(N[C@H]4CC[C@@H](O)CC4)n3n2)ccn1` [Example 378, cis-4-(2-(2-methoxypyridin-4-ylamino)-[1,2,4]triazolo[1,5-a]pyridin-5-ylamino)cyclohexanol], the IC50 under setting [3] lay in the range of 0.005 to 250 nM.

In the case of `OCc1nc2ccc(-c3cccc4nc(Nc5ccc(C(F)(F)F)cc5)nn34)cc2[nH]1` [Example 409, (6-(2-(4-(trifluoromethyl)phenylamino)-[1,2,4]triazolo[1,5-a]pyridin-5-yl)-1H-benzo[d]imidazol-2-yl)methanol], the IC50 under setting [2] was 0.005 to 250 nM.

With `CC1(C)NC(=O)c2cc(Nc3nc4cccc(CC5CCOCC5)n4n3)ccc21` [compound 113, 3,3-dimethyl-6-(5-((tetrahydro-2H-pyran-4-yl)methyl)-[1,2,4]triazolo[1,5-a]pyridin-2-ylamino)isoindolin-1-one], under setting [1], the IC50 was in the range of 1000 to 10000 nM.

As for `Cc1ccc(Nc2nc3cccc(N[C@H]4CC[C@@H](O)CC4)n3n2)cn1` [Example 403, cis-4-(2-(6-methylpyridin-3-ylamino)-[1,2,4]triazolo[1,5-a]pyridin-5-ylamino)cyclohexanol], under setting [2], the IC50 was 0.005 to 250 nM.

With `NC(=O)c1cc(Nc2nc3cccc(N[C@H]4CC[C@@H](O)CC4)n3n2)ccc1F` [Example 318, cis-2-fluoro-5-(5-(4-hydroxycyclohexylamino)-[1,2,4]triazolo[1,5-a]pyridin-2-ylamino)benzamide], the IC50 under setting [3] lay within 1000 to 10000 nM.

Consider `O=C1NCc2cc(Nc3nc4cccc(-c5ccccc5)n4n3)ccc21` [compound 69, 5-(5-phenyl-[1,2,4]triazolo[1,5-a]pyridin-2-ylamino)isoindolin-1-one], for which, under setting [1], the IC50 fell in the range of 250 to 500 nM.

For the compound `CC1(C)C(=O)Nc2cc(Nc3nc4cccc(OC5CCOCC5)n4n3)ccc21` [Example 168, 3,3-dimethyl-6-(5-(tetrahydro-2H-pyran-4-yloxy)-[1,2,4]triazolo[1,5-a]pyridin-2-ylamino)indolin-2-one], under setting [1], the IC50 is 0.005 to 250 nM.
